Measured values from patent publication US20130171098A1, “Cyclopropyl Fused Indolobenzazepine HCV NS5B Inhibitors” (priority 2006, published 2013).
Like-named read-outs stand apart in the source and are kept apart here.

Experiments:
[1] = target: T1, HCV NS5B RdRp genotype 1b (Hepatitis C virus genotype 1b, UniProt Q9WMX2); assay: HCV NS5B RdRp enzyme assay (standard / modified); format: biochemical
T1 construct: The protein was expressed with an 18 amino acid C-terminal truncation to enhance the solubility; made in house; host or cells: E. coli BL21(DE3), pET21a vector
T1 sequence (Q9WMX2 2420-2992): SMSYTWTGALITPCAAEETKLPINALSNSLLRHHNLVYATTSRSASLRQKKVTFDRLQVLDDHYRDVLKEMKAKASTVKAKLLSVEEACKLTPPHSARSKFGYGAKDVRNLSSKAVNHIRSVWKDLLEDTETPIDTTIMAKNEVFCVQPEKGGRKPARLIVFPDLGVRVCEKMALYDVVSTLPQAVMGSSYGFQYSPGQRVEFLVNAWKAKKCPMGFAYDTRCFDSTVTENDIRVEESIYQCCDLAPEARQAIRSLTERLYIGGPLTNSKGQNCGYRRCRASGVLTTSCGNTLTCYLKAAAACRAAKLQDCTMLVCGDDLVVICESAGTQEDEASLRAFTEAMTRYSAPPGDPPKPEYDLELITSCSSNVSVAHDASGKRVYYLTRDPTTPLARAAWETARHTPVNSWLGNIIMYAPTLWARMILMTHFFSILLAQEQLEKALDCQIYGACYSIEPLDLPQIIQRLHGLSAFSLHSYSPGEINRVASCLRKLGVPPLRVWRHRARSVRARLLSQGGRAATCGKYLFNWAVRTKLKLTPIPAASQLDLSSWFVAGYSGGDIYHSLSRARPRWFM
Protocol: HCV NS5B RdRp Cloning, Expression, and Purification.
The cDNA encoding the NS5B protein of HCV, genotype 1b, was cloned into the pET21a expression vector. The protein was expressed with an 18 amino acid C-terminal truncation to enhance the solubility. The E. coli competent cell line BL21(DE3) was used for expression of the protein. Cultures were grown at 37° C. for ˜4 hours until the cultures reached an optical density of 2.0 at 600 nm. The cultures were cooled to 20° C. and induced with 1 mM IPTG. Fresh ampicillin was added to a final concentration of 50 μg/ml and the cells were grown overnight at 20° C.
The lysis buffer consisted of 20 mM Tris-HCl, pH 7.4, 500 mM NaCl, 0.5% triton X-100, 1 mM DTT, 1 mM EDTA, 20% glycerol, 0.5 mg/ml lysozyme, 10 mM MgCl2, 15 ug/ml deoxyribonuclease I, and Complete TM protease inhibitor tablets (Roche). After addition of the lysis buffer, frozen cell pellets were resuspended using a tissue homogenizer. To reduce the viscosity of the sample, aliquots of the lysate were sonicated on ice using a microtip attached to a Branson sonicator. The sonicated lysate was centrifuged at 100,000×g for 1 hr at 4° C. and filtered through a 0.2 μm filter unit (Corning).
The protein was purified using two sequential chromatography steps: Heparin sepharose CL-6B and polyU sepharose 4B (Pharmacia). The chromatography buffers were identical to the lysis buffer but contained no lysozyme, deoxyribonuclease I, MgCl2 or protease inhibitor and the NaCl concentration of the buffer was adjusted according to the requirements for charging the protein onto the column. Each column was eluted with a NaCl gradient which varied in length from 5-50 column volumes depending on the column type. […] The enzyme was aliquoted and stored at −80° C.
Standard HCV NS5B RdRp Enzyme Assay.
HCV RdRp genotype 1b assays were run in a final volume of 60 μl in 96 well plates (Corning 3600). The assay buffer is composed of 20 mM Hepes, pH 7.5, 2.5 mM KCl, 2.5 mM MgCl2, 1 mM DTT, 1.6 U RNAse inhibitor (Promega N2515), 0.01 mg/ml BSA (Sigma B6917), and 2% glycerol. All compounds were serially diluted (3-fold) in DMSO and diluted further in water such that the final concentration of DMSO in the assay was 2%. HCV RdRp genotype 1b enzyme was used at a final concentration of 28 nM. A polyA template was used at 6 nM, and a biotinylated oligo-dT12 primer was used at 180 nM final concentration. Template was obtained commercially (Amersham 27-4110). Biotinylated primer was prepared by Sigma Genosys. 3H-UTP was used at 0.6 μCi (0.29 μM total UTP). Reactions were initiated by the addition of enzyme, incubated at 30° C. for 60 min, and stopped by adding 25 μl of 50 mM EDTA containing SPA beads (4 μg/μl, Amersham RPNQ 0007). Plates were read on a Packard Top Count NXT after >1 hr incubation at room temperature.
Modified HCV NS5B RdRp Enzyme Assay.
A modified enzyme assay was performed essentially as described for the standard enzyme assay except for the following: The biotinylated oligo dT12 primer was precaptured on streptavidin-coated SPA beads by mixing primer and beads in assay buffer and incubating at room temperature for one hour. Unbound primer was removed after centrifugation. The primer-bound beads were resuspended in 20 mM Hepes buffer, pH 7.5 and used in the assay at final concentrations of 20 nM primer and 0.67 μg/μl beads. Order of addition in the assay: enzyme (1.75 nM) was added to diluted compound followed by the addition of a mixture of template (0.36 nM), 3H-UTP (0.6 μCi, 0.29 μM), and primer-bound beads, to initiate the reaction; concentrations given are final. Reactions were allowed to proceed for 4 hours at 30° C.
IC50 values for compounds were determined using seven different [I].

HCV replicon cells = assay: HCV replicon FRET / luciferase assay; format: cell-based, Hepatitis C virus
Protocol: The HCV FRET screening assay was performed in 96-well cell culture plates. The FRET peptide (Anaspec, Inc.) (Taliani et al., Anal. Biochem. 1996, 240, 60-67) contains a fluorescence donor, EDANS, near one end of the peptide and an acceptor, DABCYL, near the other end. The fluorescence of the peptide is quenched by […] resonance energy transfer (RET) between the donor and the acceptor, but as the NS3 protease cleaves the peptide the products are released from RET quenching and the fluorescence of the donor becomes apparent. The assay reagent was made as follows: 5× cell Luciferase cell culture lysis reagent from Promega (#E153A) diluted to 1× with dH2O, NaCl added to 150 mM final, the FRET peptide diluted to 20 μM final from a 2 mM stock.
To prepare plates, HCV replicon cells, with or without a Renilla luciferase reporter gene, were trypsinized and plated in a 96-well plate with titrated test compounds added in columns 3 through 12; columns 1 and 2 contained a control compound (HCV control inhibitor), and the bottom row contained cells with DMSO only. The plates were then placed in a CO2 incubator at 37° C.
Subsequent to addition of the test compounds described above (FRET Assay Preparation), at various times the plate was removed and Alamar blue solution (Trek Diagnostics, #00-100) was added to measure cellular toxicity. After reading in a Cytoflour 4000 instrument (PE Biosystems), plates were rinsed with PBS and then used for FRET assay by the addition of 30 ul of the FRET peptide assay reagent described above (FRET Assay Preparation) per well. The plate was then placed into the Cytoflour 4000 instrument which had been set to 340 excite/490 emission, automatic mode for up to 20 cycles and the plate read in a kinetic mode. Typically, the signal to noise using an endpoint analysis after the reads was at least three-fold. Alternatively, after Alamar blue reading, plates were rinsed with PBS, then used for luciferase assay using the Promega Dual-Glo Luciferase Assay System or the Promega EnduRen Live Cell Substrate assay.
Compound analysis was performed by quantification of the relative HCV replicon inhibition and the relative cytotoxicity values. To calculate cytoxicity values, the average Alamar Blue fluorescence signals from the control wells were set as 100% non-toxic. The individual signals in each of the compound test wells were then divided by the average control signal and multiplied by 100% to determine […]. To calculate the HCV replicon inhibition values, an average background value was obtained from the two wells containing the highest amount of HCV control inhibitor at the end of the assay period. These numbers were similar to those obtained from naïve Huh-7 cells. The background numbers were then subtracted from the average signal obtained from the control wells and this number was used as 100% activity. The individual signals in each of the compound test wells were then divided by the averaged control values after background subtraction and multiplied by 100% to determine percent activity. […] The two numbers generated for the compound plate, percent cytoxicity and percent activity, were used to determine compounds of interest for further analysis.

[2] = HCV NS5B RdRp genotype 1b enzyme
[3] = HCV replicon cells, FRET or luciferase activity

Row | SMILES | IC50 [1, 2] | EC50 (HCV replicon cells; [3]) | IC50 [1] | EC50 (HCV replicon cells; Hepatitis C virus)
1 | CCN(CC)C(=O)N1CC2CCC(C1)N2C(=O)C12CC1c1cc(OC)ccc1-c1c(C3CCCCC3)c3ccc(C(=O)NS(=O)(=O)N4CCN(C)CC4)cc3n1C2 (centres unmarked) [drawing 106] | 1 to 500 nM | 1 to 500 nM |  | 
2 | COc1ccc2c(c1)C1CC1(C(=O)N1[C@@H]3CC[C@H]1CN(C(C)=O)C3)Cn1c-2c(C2CCCCC2)c2ccc(C(=O)NS(=O)(=O)N(C)C)cc21 (some centres unmarked) |  |  | 1 to 500 nM | 1 to 500 nM
3 | COc1ccc2c(c1)C1CC1(C(=O)N1[C@@H]3CC[C@H]1CN(C(=O)OCc1ccccc1)C3)Cn1c-2c(C2CCCCC2)c2ccc(C(=O)NS(=O)(=O)N(C)C)cc21 (some centres unmarked) |  |  | 1 to 500 nM | 1 to 500 nM
4 | COc1ccc2c(c1)C1CC1(C(=O)NC1CC3CCC(C1)N3C)Cn1c-2c(C2CCCCC2)c2ccc(C(=O)NS(=O)(=O)N(C)C)cc21 (centres unmarked) [drawing 39] |  |  | 1 to 500 nM | 1 to 500 nM
5 | COc1cccc2c1C1CC1(C(=O)N1C3CCC1CN(C)C3)Cn1c-2c(C2CCCCC2)c2ccc(C(=O)NS(=O)(=O)N(C)C)cc21 (centres unmarked) |  |  | 1 to 500 nM | > 500 nM
6 | COc1ccc2c(c1)C1CC1(C(=O)N1C3CCC1CN(C)C3)Cn1c-2c(C2CCCCC2)c2ccc(C(=O)NS(=O)(=O)N3CCC3)cc21 (centres unmarked) [drawing 51] | 1 to 500 nM | 1 to 500 nM |  | 
7 | CN1CC2CCC(C1)N2C(=O)C12CC1c1c(OC(F)(F)F)cccc1-c1c(C3CCCCC3)c3ccc(C(=O)NS(=O)(=O)N(C)C)cc3n1C2 (centres unmarked) |  |  | 1 to 500 nM | 1 to 500 nM
8 | CCN(CC)C(=O)N1CC2CCC(C1)N2C(=O)C12CC1c1cc(OC)ccc1-c1c(C3CCCCC3)c3ccc(C(=O)NS(=O)(=O)C4CC4)cc3n1C2 (centres unmarked) [drawing 105] | 1 to 500 nM | 1 to 500 nM |  | 
9 | COc1ccc2c(c1)C1CC1(C(=O)N1C3CCC1CN(C(C)=O)C3)Cn1c-2c(C2CCCCC2)c2ccc(C(=O)NS(=O)(=O)N(C)C)cc21 (centres unmarked) [drawing 35] |  |  | 1 to 500 nM | 1 to 500 nM
10 | COc1ccc2c(c1)C1CC1(C(=O)N1C3CCC1CN(C(C)C)C3)Cn1c-2c(C2CCCCC2)c2ccc(C(=O)NS(=O)(=O)N(C)C)cc21 (centres unmarked) [drawing 62] | 1 to 500 nM | 1 to 500 nM |  | 
11 | CN1CC2CCC(C1)N2C(=O)C12CC1c1c(OC(F)(F)F)cccc1-c1c(C3CCCCC3)c3ccc(C(=O)O)cc3n1C2 (centres unmarked) |  |  | 1 to 500 nM | 1 to 500 nM
12 | CCN(CC)C(=O)N1CC2CCC(C1)N2C(=O)C12CC1c1cc(OC)ccc1-c1c(C3CCCCC3)c3ccc(C(=O)NS(=O)(=O)C4CC4)cc3n1C2 (centres unmarked) [drawing 92] |  |  | 1 to 500 nM | 1 to 500 nM
13 | COc1ccc2c(c1)C1CC1(C(=O)N1C3CCC1CNC3)Cn1c-2c(C2CCCCC2)c2ccc(C(=O)NS(=O)(=O)N(C)C)cc21 (centres unmarked) [drawing 59] | 1 to 500 nM | 1 to 500 nM |  | 
